Starred links: 1 amine or outer side, 2 acyl side, 3 side chain; linkers in the order of their positions; H or OH if unused. Non-standard residues stand in square brackets, D forms with d. Residues, ends and D or L forms follow the SMILES beside them. X1 = O=C(Cc1cccc(/N=N/c2cccc(CN[*:1])c2)c1)[*:2]; X2 = O=C(Cc1cccc(/N=N\c2cccc(CN[*:1])c2)c1)[*:2]
Legend:
[1] = system: pancreatic beta cells within intact islets; experiment: Multicellular Ca2+ imaging in intact islets of Langerhans; assay type: cell-based, mouse; conditions: for effect on cytosolic Ca2+ levels / multicellular Ca2+ spiking in islets / Ca2+ rises / beta-cell activity at non-permissive (low) glucose: 150 nM; for effect on cytosolic Ca2+ levels / multicellular Ca2+ spiking in islets: permissive (>8 mM) glucose, blue 440 nm (trans), UV 350 nm (cis); for Ca2+ rises / beta-cell activity at non-permissive (low) glucose: G3, 3 mM glucose, n=5 recordings; for effect of GLP-1R blockade on trans-LirAzo-stimulated Ca2+ oscillations: Exendin 9-39 150 nM, n=9 recordings
Experimental: (§1) All procedures involving primary tissue were regulated by the Home Office according to the Animals (Scientific Procedures) Act 1986 of the United Kingdom […]
(§2) Isolation of rodent islets
(§3) Islets were isolated from 8-12 week old female C57BL6 mice, as previously detailed,[2] and maintained in Roswell Park Memorial Institute (RPMI) medium supplemented with 10% foetal calf serum, 100 U/mL penicillin and 100 µg/mL […]
Multicellular Ca2+ imaging was performed using fluo2 and a Nipkow spinning disk confocal microscope, as detailed.[3] Briefly, pulsed λ = 491 nm light was delivered through a 10/0.3 NA objective (EC Plan-Neofluar, Zeiss) using a solid-state laser (Cobalt), and emitted signals captured from λ = 500-550 nm using a Hammamatsu ImageEM EM-CCD camera. Photoswitching was performed using either a λ = 440 nm laser or the epifluorescent port of the microscope configured with a λ = 350 ± 20 nm band-pass filter. Throughout, HEPES-bicarbonate buffer was used, containing in mM: 120 NaCl, 4.8 KCl, 24 NaHCO3, 0.5 Na2HPO4, 5 HEPES, 2.5 CaCl2 and 1.2 MgCl2. Compounds and D-glucose were added as […]

MIN6 beta cells [2] = experiment: cAMP responses in MIN6 beta cells (Cisbio HTRF cAMP assay); assay type: cell-based; conditions: permissive (>8 mM) glucose, n=7 repeats
Experimental: as §1, §2, §3
Chinese Hamster Ovary (CHO) cells stably expressing the GLP-1R were cultured in Dulbecco's Modified Eagle's Medium (DMEM) supplemented with 10% FBS, 1 x non-essential amino acids, 25 mM HEPES, 100 U/mL penicillin and 100 µg/mL streptomycin. […]
(§4) (live) and 2.5 µM of propidium iodide (dead), and […]/emission detected at λ = 491/525 nm and λ = 561/620 nm, respectively. The area of dead:live cells was calculated as a ratio. Apoptosis was assessed using a DeadEnd Fluorimetric TUNEL System staining kit (Promega).[3] The apoptotic cell mass was calculated as a fraction area versus the total cell mass. […]
(§5) mixture (33 mM glucose + 0.5 mM palmitate) in the presence or absence of compound. Apoptosis was subsequently determined using specific fluorescent immunostaining and a rabbit polyclonal antibody against cleaved caspase 3 (Cell Signaling Technology # 9661; 1:400), before analysis as above. […]
HitHunter No Wash PLUS assay. […] Absorbance/emission were detected at λ = 488/525 nm. […]

MIN6 beta cells [3] = assay type: cell-based; conditions: for signaling pathways engaged (Ca2+ rises with pathway antagonists): MIN6 beta cells, 150 nM, >8 mM glucose, antagonists of Epac2, L-type Ca2+ channels, KATP, IP3R, PKA, n=8 repeats
Experimental: (§6) All procedures involving primary tissue were regulated by the Home Office […]
MIN6 cells (a kind gift from Dr Jun-ichi Miyazaki, Osaka University) […]
HEPES, 0.0005% β-mercaptoethanol 100 U/mL penicillin and 100 µg/mL […]
Multicellular Ca2+ imaging was performed using fluo2 and a Nipkow spinning disk confocal microscope, as detailed.[3] […]
through a 10/0.3 NA objective (EC Plan-Neofluar, Zeiss) using a solid-state laser (Cobalt), and emitted signals captured from λ = 500-550 nm using a Hammamatsu ImageEM EM-CCD camera. Photoswitching was performed using either a λ = 440 nm laser or the epifluorescent port of the microscope configured with a λ = 350 ± 20 nm band-pass filter. Throughout, HEPES-bicarbonate buffer was used, containing in mM: 120 NaCl, 4.8 KCl, 24 NaHCO3, 0.5 Na2HPO4, 5 […]
HEPES, 2.5 CaCl2 and 1.2 MgCl2. […]
High-throughput (HTS) Ca2+ assays were performed using the DiscoverX
HitHunter No Wash PLUS assay. Treatments were automatically delivered at 37 °C using a BMG Labtech NOVOstar platereader and fluorescence intensity read […]
over 30-45 s. […] For all […]
transilluminator to induce cis-isomerization, or kept in the dark to maintain the […]
trans-isomer. […]
(§7) Non-multifactorial comparisons were made using Student’s t-test. Multifactorial comparisons were made using either one- or two-way ANOVA, or the Kruskal-Wallis test, followed by pairwise comparisons using Bonferonni’s or Dunn’s tests.
(§8) Log-transformed concentration-response curves were fitted using non-linear regression and the Hill equation. All analyses were conducted using Graphpad Prism (Graphpad Software) and IgorPro, and results deemed significant at […]

mouse islets = experiment: Glucose-stimulated insulin secretion from isolated islets; assay type: cell-based; conditions: 150 nM, 8 mM glucose, n=12 animals; for augmentation of glucose-stimulated insulin secretion: mouse islets, 30 min, dark (trans) or 350 nm light (cis)
Experimental: as §6, §2, §3
transilluminator to induce cis-isomerization, or kept in the dark to maintain the trans-isomer. In addition, for HTS Ca2+ assays, λ = 340 ± 10 nm or λ = […] was delivered between acquisitions using the platereader’s inbuilt […]
Batches of six to eight islets were incubated for 30 min in Krebs-HEPES-bicarbonate solution containing in mM: 130 NaCl, 3.6 KCl, 1.5 CaCl2, 0.5 MgSO4, 0.5 NaH2PO4, 2 NaHCO3, 10 HEPES and 0.1% (wt/vol) bovine serum albumin, pH 7.4.[2] Treatments were applied as indicated and photoswitching performed at λ = 340 ± 10 nm using a BMG Fluostar Optima platereader, as above. Insulin concentrations in the supernatant were measured using a Cisbio HTRF assay according to the low-range (sensitive) protocol.
as §7, §8

MIN6 beta cells [4] = experiment: Apoptosis induced by glucolipotoxicity in MIN6 beta cells (cleaved caspase 3); assay type: cell-based; conditions: 500 nM, 24 h, 33 mM glucose + 0.5 mM palmitate, n=8 repeats
Experimental: MIN6 cells (a kind gift from Dr Jun-ichi Miyazaki, Osaka University) were cultured in DMEM supplemented with 15% FBS, 10 mM glutamine, 20 mM HEPES, 0.0005% β-mercaptoethanol 100 U/mL penicillin and 100 µg/mL […]
Apoptosis was assessed using a DeadEnd Fluorimetric
TUNEL System staining kit (Promega).[3] The apoptotic cell mass was calculated as a fraction area versus the total cell mass. To investigate the pro-survival […]
as §5

[5] = cis-trans photoisomerization by UV/Vis spectroscopy; assay type: physicochemical; conditions: UV 330 nm (trans→cis), blue 440 nm (cis→trans), listed as names the isomer
From the text: Switching kinetics in response to blue (λ=440 nm; cis→trans) and UV (λ=330 nm; trans→cis) light were robust and fast, with no evidence of degradation or bleaching (Figure 2 b; see Figure S2 and Table S2 in the Supporting Information).

islets = experiment: Cytotoxicity (dead:live and TUNEL) in islets; assay type: cell-based, mouse; conditions: 11 mM glucose-only; n=8-9 islets
Experimental: as §1, §2, §3
Cytotoxicity and apoptosis assays
as §4

| Compound | effect on cytosolic Ca2+ levels / multicellular Ca2+ spiking in islets [1] | cAMP concentration response in MIN6 beta cells, cis versus trans (MIN6 beta cells [2]) | Ca2+ fluxes versus control injection (high glucose alone) (MIN6 beta cells [3]; Figure S6) | signaling pathways engaged (Ca2+ rises with pathway antagonists) (MIN6 beta cells [3]) | potentiation of glucose-stimulated insulin secretion (versus G8) (mouse islets) | augmentation of glucose-stimulated insulin secretion (mouse islets) | protection from apoptosis induced by glucolipotoxic insult (MIN6 beta cells [4]) | photoswitching kinetics τ1 [5] | photoswitching kinetics τ2 [5] | Ca2+ rises / beta-cell activity at non-permissive (low) glucose [1] | Ca2+ rises / beta-cell activity at non-permissive (low) glucose ([1]; listed as trans-LirAzo) | islet cell apoptosis under normal conditions (TUNEL) (islets) | protection from apoptosis induced by glucolipotoxic insult (MIN6 beta cells [4]; listed as trans isomer of LirAzo) | effect of GLP-1R blockade on trans-LirAzo-stimulated Ca2+ oscillations [1] | effect of GLP-1R blockade on trans-LirAzo-stimulated Ca2+ oscillations ([1]; listed as Exendin 9-39) |
| --- | --- | --- | --- | --- | --- | --- | --- | --- | --- | --- | --- | --- | --- | --- | --- |
| CC[C@H](C)[C@H](NC(=O)[C@H](Cc1ccccc1)NC(=O)[C@H](CCC(=O)O)NC(=O)[C@H](CCCCN)NC(=O)[C@H](C)NC(=O)[C@H](C)NC(=O)Cc1cccc(/N=N\c2cccc(CNC(=O)[C@H](CCC(=O)O)NC(=O)[C@H](CC(C)C)NC(=O)[C@H](Cc3ccc(O)cc3)NC(=O)[C@H](CO)NC(=O)[C@H](CO)NC(=O)[C@@H](NC(=O)[C@H](CC(=O)O)NC(=O)[C@H](CO)NC(=O)[C@@H](NC(=O)[C@H](Cc3ccccc3)NC(=O)[C@@H](NC(=O)CNC(=O)[C@H](CCC(=O)O)NC(=O)[C@H](C)NC(=O)[C@@H](N)Cc3c[nH]cn3)[C@@H](C)O)[C@@H](C)O)C(C)C)c2)c1)C(=O)N[C@@H](C)C(=O)N[C@@H](Cc1c[nH]c2ccccc12)C(=O)N[C@@H](CC(C)C)C(=O)N[C@H](C(=O)N[C@@H](CCCNC(=N)N)C(=O)NCC(=O)N[C@@H](CCCNC(=N)N)C(=O)NCC(=O)O)C(C)C [cis‐LirAzo] (H-HAEGTFTSDVSSYLE[X2]AAKEFIAWLVRGRG-OH) | reduced | significantly left‐shifted, with a higher maximal response | only just above those observed following control injection | signaled via the cAMP binding partners Epac2 and PKA, as well as IP3 | potentiate | ca. 2.5 fold | Lira and trans‐LirAzo are more protective than cis‐LirAzo | 51.0 ± 2.4 s | 11.1 ± 4.0 min |  |  |  |  |  |  |
| CC[C@H](C)[C@H](NC(=O)[C@H](Cc1ccccc1)NC(=O)[C@H](CCC(=O)O)NC(=O)[C@H](CCCCN)NC(=O)[C@H](C)NC(=O)[C@H](C)NC(=O)Cc1cccc(/N=N/c2cccc(CNC(=O)[C@H](CCC(=O)O)NC(=O)[C@H](CC(C)C)NC(=O)[C@H](Cc3ccc(O)cc3)NC(=O)[C@H](CO)NC(=O)[C@H](CO)NC(=O)[C@@H](NC(=O)[C@H](CC(=O)O)NC(=O)[C@H](CO)NC(=O)[C@@H](NC(=O)[C@H](Cc3ccccc3)NC(=O)[C@@H](NC(=O)CNC(=O)[C@H](CCC(=O)O)NC(=O)[C@H](C)NC(=O)[C@@H](N)Cc3c[nH]cn3)[C@@H](C)O)[C@@H](C)O)C(C)C)c2)c1)C(=O)N[C@@H](C)C(=O)N[C@@H](Cc1c[nH]c2ccccc12)C(=O)N[C@@H](CC(C)C)C(=O)N[C@H](C(=O)N[C@@H](CCCNC(=N)N)C(=O)NCC(=O)N[C@@H](CCCNC(=N)N)C(=O)NCC(=O)O)C(C)C [trans‐LirAzo] (H-HAEGTFTSDVSSYLE[X1]AAKEFIAWLVRGRG-OH) | induced increases in the baseline amplitude and frequency of multicellular Ca^2+ spiking |  |  | signaled via the cAMP binding partners Epac2 and PKA, as well as IP3 |  | ca. 1.4 fold | more protective than cis‐LirAzo | 32.3 ± 1.6 s | 7.5 ± 3.4 min | unable to stimulate changes in beta‐cell activity | unable | do not induce | significant protection |  |  |
| exendin 9–39 [reference compound] |  |  |  |  |  |  |  |  |  |  |  |  |  | abolished | abolishes |

Source: publication PMC4736448, “Optical Control of Insulin Secretion Using an Incretin Switch” (Angewandte Chemie (International Ed. in English), 2015)
